The test system of series [1] is transplantation rejection. As to conditions: in vivo; cited from earlier work.
Another series deals with T-cell. As to conditions: cited from earlier work.
The next series deals with B-cell. The settings on record: cited from earlier work.
In a further series the test system is animal. As to conditions: 10 to 30 mg/kg for 16 weeks; cited from earlier work.
The next series deals with NOD mouse. The settings on record: cited from earlier work.
For series [2], the system named is cytokines TNF-α, IL-1β, IL-6, IL-12, IL-2, IFN-γ, IL4, IL-10. Put plainly: Cytokine expression levels in spleen cells by RT-PCR. It is filed as in vivo. As to conditions: spleen cells of treated DBA/1 mouse, 10 mg/kg i.p. every other day. The procedure: The spleen cells were removed from DBA/1 mouse of the prodigiosin-treated group and the control group, not treated with prodigiosin, in Example 3 and subjected to RNA separation. Then, the expression levels of cytokine were measured using RT-PCR (Reverse transcriptase polymerase chain reaction). The expression levels of inflammatory cytokines such as TNF-α, IL-1β, IL-6, IL-12; cytokines derived from Th1 cells such as IL-2, IFN-γ; cytokines derived from Th2 cells such as IL4, IL-10 were measured.

The subject of series [3] is DBA/1 mouse with collagen-induced rheumatic arthritis. Description: Crisis level (clinical index) of collagen-induced rheumatic arthritis. In kind it is in vivo. The procedure: 6 week-old male DBA/1 mouse supplied from Charles River Japan (Japan) was adapted until 8 to 12 week-old and then, used in the experiment. On the first day of the experiment, the mouse was administered subcutaneously with 100 μl of collagen/complete freund's adjuvant at its tail. The collagen/complete freund's adjuvant was prepared by mixing a solution of collagen (bovine type II) dissolved in 0.05 M acetic acid at a concentration of 2 mg/ml with complete freund's adjuvant at the same concentration. At 21st day of the experiment, 100 μg of collagen was intraperitoneally administered and at 28th day of the experiment, 40 μg of lipopolysaccharide was intraperitoneally administered to promote arthritis crisis. The crisis level of rheumatic arthritis was examined with the naked eye and expressed as a clinical index. That is, 0=none, 0.5=flushed and swollen toe, 1=mild crisis, 1.5=moderate crisis, 2 or more=severe crisis and joint stiffness. Four legs of the DBA/1 mouse were examined for their levels of arthritis crisis.
In order to confirm the therapeutic effect of prodigiosin on rheumatic arthritis, three types of experiments were performed according to the following strategies: (1) 10 mg/kg of prodigiosin was intraperitoneally administered every other day from the 29th day of the experiment, when rheumatic arthritis lesion was developed, to 65th day, the last day of the experiment; (2) 10 mg/kg of prodigiosin was intraperitoneally administered every other day from the 29th day of the experiment, when rheumatic arthritis lesion was developed, to 36th day of the experiment; and (3) 10 mg/kg of prodigiosin was intraperitoneally administered every other day from the 36th day of the experiment, when rheumatic arthritis was in progress, to 65th day, the last day of the experiment.
(§1) In this example, the DBA/1 mouse with collagen-induced rheumatic arthritis, prepared in Example 1, were administered intraperitoneally with 10 mg/kg of prodigiosin every other day from the 29th day of the experiment to 65th day of the experiment. The DBA/11 mouse treated with prodigiosin according to the above method and the DBA/1 mouse non-treated with prodigiosin were examined for their crisis level of rheumatic arthritis according to time.
as §1, with “order to investigate the change after suspension of administration of prodigiosin and the influence of prodigiosin on early rheumatic arthritis,” for “this example,”, “36th” for “65th”, “DBA/1” for “DBA/11”, “time. […] Accordingly, it is noted that prodigiosin has effects preventing and treating rheumatic arthritis.” for “time.”
In order to investigate the influence of prodigiosin on rheumatic arthritis which had developed and progressed, the DBA/1 mouse with collagen-induced rheumatic arthritis, prepared in Example 1, were administered intraperitoneally with 10 mg/kg of prodigiosin every other day from the 36th day to 65th day after starting the experiment. The DBA/1 mouse treated with prodigiosin according to the above method and the DBA/1 mouse non-treated with prodigiosin were examined for their crisis level of rheumatic arthritis according to time.

Series [4] shares this test system. Put plainly: Laboratory test: hematoxylin and eosin staining of interphalangeal and knee joints. It is filed as in vivo. The settings on record: H&E staining. The text has this: The ininter phalangeal joints and knee joints from DBA/1 mouse of the prodigiosin-treated group and the control group, not treated with prodigiosin, in Example 3 were subjected to a laboratory test. The ininter phalangeal joints and knee joints were removed on the last day of the administration and stained with hematoxylin and eosin.

With `CCCCCC1=C/C(=C/c2[nH]c(-c3ccc[nH]3)cc2OC)N=C1C` [prodigiosin], the “effect on transplantation rejection” value in series [1] is “therapeutic effects”. For the same compound, in the series on T-cell, the “proliferation and activity of T-cell” value was “strongly inhibit”. Moreover, the “toxicity at a concentration where immunosuppression occurs” value in the series with T-cell (concentration where immunosuppression occurs) is “not showing toxicity”. Moreover, the “antibody production and proliferation of B-cell” value in the series with B-cell is “does not inhibit”. Further, in the series on animal, the toxicity in animal result is listed as “does not show toxicity”. Besides, the “diabetes crisis of the NOD mouse” value in the series with NOD mouse (10 mg/kg intraperitoneally every other day) is “completely suppressed”. Besides, the “insulitis (lymphocyte infiltration into pancreatic islet)” value in the series on NOD mouse (NOD mouse) is “suppressed insulitis”. Further, the “expression levels of cytokines (TNF-α, IL-1β, IL-6, IL-12, IL-2, IFN-γ, IL4, IL-10)” value in series [2] is “reduced the expression levels of all kinds of cytokines”. Moreover, the “crisis level of rheumatic arthritis after suspension of administration” value in series [3] (10 mg/kg i.p. every other day from 29th to 36th day, after suspension of administration) is “about 1”. Moreover, the “crisis level of rheumatic arthritis by the 38th day” value in series [3] (10 mg/kg i.p. every other day from 29th to 36th day, by the 38th day) is listed as at most 0.5. For the same compound, in series [3] (10 mg/kg i.p. every other day from 29th to 65th day, clinical index 0 to 8 (four legs)), the “crisis level of rheumatic arthritis” value is given as at most 0.5. In series [3] (10 mg/kg i.p. every other day from 36th to 65th day, at 36 day (start of administration)), the “crisis level of rheumatic arthritis at 36 day” value is listed as “about 2”. Besides, the “change of crisis level after 36 day” value in series [3] (10 mg/kg i.p. every other day from 36th to 65th day, progressive arthritis) was “no more increase”. In series [4] (groups of Example 3 (10 mg/kg i.p., 29th to 36th day)), the “histology of interphalangeal joint and knee joint” value was “Normal tissues”. In addition, in series [4] (groups of Example 3), the “joint destruction in the knee joint” value is given as “not observed” and the “lymphocyte infiltration into the interphalangeal joint” value was “not observed”.

(Values after patent publication US20040127547A1, “Prodigiosin composition for the treatment of rheumatic arthritis” (priority 2001, published 2004).)
